Among the data in patent US9856245B2, “GPR40 agonists for the treatment of type II diabetes” (Janssen Pharmaceutica NV, priority 2015, dated 2018) are EC50 values, retold here.

Values joined by “and” are separate entries in the source; they are usually repeats but may differ in a detail not shown here. Identical values can stand only once.

This test deals with T1, human GPR40 (Homo sapiens, UniProt O14842).
T1 construct: expressed in transfected cells
T1 sequence (O14842 whole entry): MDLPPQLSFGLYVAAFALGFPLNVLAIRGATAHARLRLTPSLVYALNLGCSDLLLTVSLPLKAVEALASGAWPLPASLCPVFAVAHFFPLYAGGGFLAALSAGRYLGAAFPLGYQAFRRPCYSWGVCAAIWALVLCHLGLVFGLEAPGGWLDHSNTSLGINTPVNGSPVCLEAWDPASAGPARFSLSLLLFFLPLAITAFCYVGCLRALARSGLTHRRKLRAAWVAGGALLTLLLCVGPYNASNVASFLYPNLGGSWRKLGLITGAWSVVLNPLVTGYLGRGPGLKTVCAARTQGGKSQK
Description: GPR40 calcium flux assay (hGPR40 Ca2+ Assay). Format: cell-based. The conditions noted are these: transfected HEK293 cells stably expressing human GPR40; Fluo 8 calcium dye; multiple values = repeated testing; read-out: hGPR40 Ca^2+ Assay EC50. The protocol: Compounds were tested in a calcium flux assay using transfected HEK293 cells stably expressing either human GPR40 or rat GPR40. Human GPR40 expressing cells were cultured in DMEM-High Glucose media supplemented with 10% fetal bovine serum, 1× L-Glutamine, 1× Penicillin/Streptomycin and 500 μg/mL G418. Rat GPR40 expressing cells were cultured in DMEM-High Glucose media supplemented with 10% fetal bovine serum and 1 μg/mL puromycin. Cells were plated into poly-D-lysine coated 384-well plates and cultured overnight in a 37° C. humidified tissue culture incubator under 5% CO2/[…] atmosphere. On the day of the experiment, the culture media was replaced with assay buffer (HBSS, 20 mM HEPES, 0.1% BSA) and the cells incubated at 37° C. for 1 h. Calcium-sensitive fluorescent dye (Fluo 8 No-Wash Calcium Dye, ABD Bioquest) was then added and the cells incubated for another 30 min at 37° C. followed by 15 min at room temperature while protected from the light. The cell plate and a plate of diluted compounds of Formula (III) were loaded into a fluorescent plate reader that added compounds onto the cells while measuring the fluorescence intensity of each well. The plate reader recorded fluorescence intensity at 1 second intervals for 8 min and provided the data for analysis in an Excel format. EC50 values were calculated using Prism (GraphPad) software.
For the molecule `COc1ccc(F)c(-n2cnc(COc3cccc([C@@H](CC(=O)O)C4CC4)c3)c2C=C(C)C)c1` [Cpd 91, (3S)-3-cyclopropyl-3-[3-[[1-(2-fluoro-5-methoxy-phenyl)-5-(2-methylprop-1-enyl)imidazol-4-yl]methoxy]phenyl]propanoic acid], the EC50 (commonly the concentration at which the effect is half-maximal) was 477 nM and 413 nM.

With `COc1ccc(F)c(-n2nnc(COc3cccc([C@@H](CC(=O)O)C4CC4)c3)c2-c2ccc(C(C)(C)C)s2)c1` [Cpd 92, (3S)-3-[3-[[5-(5-tert-butyl-2-thienyl)-1-(2-fluoro-5-methoxy-phenyl)triazol-4-yl]methoxy]phenyl]-3-cyclopropyl-propanoic acid], the EC50 is 10 nM and 9 nM.

For the molecule `COc1ccc(F)c(-n2cnc(COc3cccc([C@@H](CC(=O)O)C4CC4)c3)c2CC(C)C)c1` [Cpd 93, (3S)-3-cyclopropyl-3-[3-[[1-(2-fluoro-5-methoxy-phenyl)-5-isobutyl-imidazol-4-yl]methoxy]phenyl]propanoic acid], the EC50 was 136 nM and 132 nM.

With `COc1ccc(F)c(-n2ncc(COc3cccc([C@@H](CC(=O)O)C4CC4)c3)c2-c2ccc(C)s2)c1` [Cpd 94, (3S)-3-cyclopropyl-3-[3-[[1-(2-fluoro-5-methoxy-phenyl)-5-(5-methyl-2-thienyl)pyrazol-4-yl]methoxy]phenyl]propanoic acid], the EC50 was 121 nM and 60 nM.

`COc1ccc(F)c(-n2ncc(COc3cccc([C@@H](CC(=O)O)C4CC4)c3)c2-c2ccc(F)cc2F)c1` [Cpd 95, (3S)-3-cyclopropyl-3-[3-[[5-(2,4-difluorophenyl)-1-(2-fluoro-5-methoxy-phenyl)pyrazol-4-yl]methoxy]phenyl]propanoic acid]: the EC50 is 65 nM and 55 nM.

`COc1ccc(F)c(-n2ncc(COc3cccc([C@@H](CC(=O)O)C4CC4)c3)c2-c2cc(C)cc(C)c2)c1` [Cpd 96, (3S)-3-cyclopropyl-3-[3-[[5-(3,5-dimethylphenyl)-1-(2-fluoro-5-methoxy-phenyl)pyrazol-4-yl]methoxy]phenyl]propanoic acid]: the EC50 was 25 nM and 23 nM.

Take `COc1ccc(F)c(-n2nnc(COc3cccc([C@@H](CC(=O)O)C4CC4)c3)c2OC2CCCCC2)c1` [Cpd 97, (3S)-3-[3-[[5-(cyclohexoxy)-1-(2-fluoro-5-methoxy-phenyl)triazol-4-yl]methoxy]phenyl]-3-cyclopropyl-propanoic acid]: the EC50 was 13 nM and 8 nM.

For `COc1ccc(F)c(-n2nnc(COc3cccc([C@@H](CC(=O)O)C4CC4)c3)c2OC(C)C)c1` [Cpd 98, (3S)-3-cyclopropyl-3-[3-[[1-(2-fluoro-5-methoxy-phenyl)-5-isopropoxy-triazol-4-yl]methoxy]phenyl]propanoic acid], the EC50 was 47 nM and 36 nM.
